# Earlier results, collected in patent publication US9572826B2, “Compositions for the treatment of hair loss” (priority 2008, dated 2017).
# Assays:
# alopecia areata = details: intralesional injection
# hair loss = details: human, in vivo
Compound,injected sites with hair regrowth (alopecia areata),patients in whom effective (hair loss),side effects reported (hair loss)
CC(C)(C)CC(=O)OCC(=O)[C@@]12OC(C)(C)O[C@@H]1C[C@H]1[C@@H]3CCC4=CC(=O)C=C[C@]4(C)[C@@]3(F)[C@@H](O)C[C@@]12C [triamcinolone hexacetonide],33 out of 34,,
CC(C)(C)NC(=O)[C@H]1CC[C@H]2[C@@H]3CC[C@H]4NC(=O)C=C[C@]4(C)[C@H]3CC[C@]12C [Finasteride],,approximately 50%,erectile dysfunction and gynecomastica
